Converted amounts (≈) assume the structure as drawn. “And” between values parts separate entries of the source, which are not always exact repeats. Identical values can stand only once. Like-named read-outs stand apart in the source and are kept apart here. Non-standard residues stand in square brackets, D forms with d. Residues, ends and D or L forms follow the SMILES beside them.
Legend:
[1] = test system: K. pneumoniae ATCC 700603; test: Membrane permeability, SYTOX Green; format: cell-based, Klebsiella pneumoniae
Protocol: (§1) Fluorescent probe SYTOX^TM Green (Invitrogen/ Life Technologies, S7020) was used to analyze the effect of HT2 and RI-HT2 on membrane permeability of MRSA USA 300 and K. pneumoniae ATCC 700603 as described elsewhere. SYTOX^TM Green is a DNA binding dye that is fluorescent when bound to nucleic acids and only enters cells with compromised plasma membranes. MRSA USA 300 and K. pneumoniae ATCC 700603 were cultured in LB broth to mid log phase at 37 °C and washed with PBS and resuspended (OD595 ≈ 0.1) in the same buffer. SYTOX^TM Green was added into the cell suspension with a final concentration of 5 μM and being kept in dark for 20 min. 98 µL pre-treated cell suspension was transferred into wells of 96-well glass black plates. Then, 2 µL of compound or DMSO were added to initiate the reaction. The final concentrations of HT2 and RI-HT2 were 1 ×, 2 ×, 4 × and 8 × MIC. Fluorescence strength was measured with excitation/emission wavelength of 485/528 nm every 5 min for 60 min.

MRSA USA 300 [2] = test: Membrane permeability, SYTOX Green; format: cell-based, Staphylococcus aureus
Protocol: as §1

MRSA USA 300 [3] = test: Membrane depolarization assay, DiSC3(5); format: cell-based, Staphylococcus aureus
Protocol: MRSA USA 300 and K. pneumoniae ATCC 700603 were inoculated into 5 mL of LB and shaken at 37°C and 225 rpm to OD600 ≈ 0.5 (i.e., mid-logarithmic phase). Bacteria were collected by centrifugation at 8000 rpm for 5 min, and washed twice with assay buffer (5 mM HEPES, 20 mM glucose, 10 mM KCl, pH 7.2). Bacteria were resuspended in the assay buffer to OD595 ≈ 0.1. DiSC3(5) was added to the cells at final concentration of 0.3 µM, wrapped with aluminum foil, and incubated at 37°C, until a stable fluorescence was observed. Two microliter of compound or DMSO were transferred into 96-well black walled polystyrene plates, to which was added 98 µL per well of the dye-saturated bacterial cells to initiate the reaction. The final concentration of HT2 and RI-HT2 were 1 ×, 2 ×, 4 × and 8 × MIC. Plates were immediately read on an Envison at λex = 622 nm/ λem = 670 nm with a kinetic program (reading every 1 min for 10 min) until the maximal intensity achieved was observed.

MRSA ATCC 43300 = format: cell-based, Staphylococcus aureus; settings: ATCC 43300
Description: (§2) Bacteria were cultivated in Luria-Bertani (LB) broth.

MRSA 3393 = format: cell-based, Staphylococcus aureus; settings: 3393
Description: as §2

MRSA USA 300 [4] = format: cell-based, Staphylococcus aureus
Description: as §2

MRSA USA 300 [5] = format: cell-based, Staphylococcus aureus; remark: listed apart in the source
Protocol: The stability of peptides in different media was assessed using the MIC assay described above. Here, the stability of HT2 and RI-HT2 in serum, salt, and different pH were analyzed using methods previously described with some modifications. For serum stability, a solution of 10% or 20% fetal bovine serum (FBS) was made by diluting fetal bovine serum with phosphate buffer saline (PBS). HT2 and RI-HT2 were added for a final concentration of 160 µg/mL of peptide in the FBS solution, and incubation 2 h. Suspension containing no peptide was considered the negative control. The MIC of HT2 and RI-HT2 against MRSA USA 300 and K. pneumoniae ATCC 700603 were measured. For the acid stability assays, the peptides were incubated with different pH values of PBS (pH = 5.5 or 6.4) at 37 °C. These peptide mixtures were then serially diluted in a 96-well plate for the evaluation of antimicrobial activity against bacterial strains. Similarly, for salt stability, the peptides were assessed for their antimicrobial activity against MRSA USA 300 and K. pneumoniae ATCC 700603 in the presence of 150 mM NaCl.

SMILES: CC[C@@H](C)[C@@H](NC(=O)[C@@H](Cc1ccccc1)NC(=O)[C@@H](Cc1ccccc1)NC(=O)[C@@H](Cc1ccccc1)NC(=O)[C@H](N)Cc1ccccc1)C(=O)N[C@H](CCCNC(=N)N)C(=O)N[C@H](CCCNC(=N)N)C(=O)N[C@H](CC(C)C)C(=O)N[C@H](Cc1ccccc1)C(=O)N[C@H](CCCNC(=N)N)C(N)=O [RI-HT2] (H-[dF][dF][dF][dF][dI][dR][dR][dL][dF][dR]-NH2; N-terminus assumed)
- Fluorescence intensity ([1]; 2 × MIC, time 0 min): 1284 and 1283 and 1287
- Fluorescence intensity ([1]; 2 × MIC, time 5 min): 3609 and 3355 and 3304
- Fluorescence intensity ([1]; 2 × MIC, time 10 min): 8683 and 7973 and 7881
- Fluorescence intensity ([1]; 2 × MIC, time 15 min): 14691 and 13649 and 13959
- Fluorescence intensity ([1]; 2 × MIC, time 20 min): 20043 and 18959 and 19659
- Fluorescence intensity ([1]; 2 × MIC, time 25 min): 24616 and 23653 and 24172
- Fluorescence intensity ([1]; 2 × MIC, time 30 min): 28652 and 27362 and 28393
- Fluorescence intensity ([1]; 2 × MIC, time 35 min): 31775 and 30780 and 31899
- Fluorescence intensity ([1]; 4 × MIC, time 0 min): 1309 and 1246 and 1149
- Fluorescence intensity ([1]; 4 × MIC, time 5 min): 36231 and 38899 and 38058
- Fluorescence intensity ([1]; 4 × MIC, time 10 min): 55462 and 53189 and 56098
- Fluorescence intensity ([1]; 4 × MIC, time 15 min): 60865 and 61985 and 61514
- Fluorescence intensity ([1]; 4 × MIC, time 20 min): 61161 and 60954 and 60896
- Fluorescence intensity ([1]; 4 × MIC, time 25 min): 61613 and 62061 and 61850
- Fluorescence intensity ([1]; 4 × MIC, time 30 min): 62160 and 62706 and 62610
- Fluorescence intensity ([1]; 4 × MIC, time 35 min): 62714 and 61385 and 61471
- Fluorescence intensity ([1]; 8 × MIC, time 0 min): 1294 and 1162 and 1248
- Fluorescence intensity ([1]; 8 × MIC, time 5 min): 46731 and 44912 and 46760
- Fluorescence intensity ([1]; 8 × MIC, time 10 min): 54425 and 53299 and 56314
- Fluorescence intensity ([1]; 8 × MIC, time 15 min): 62319 and 60472 and 61594
- Fluorescence intensity ([1]; 8 × MIC, time 20 min): 64747 and 64976 and 65277
- Fluorescence intensity ([1]; 8 × MIC, time 25 min): 65628 and 65784 and 65550
- Fluorescence intensity ([1]; 8 × MIC, time 30 min): 65623 and 66146 and 65510
- Fluorescence intensity ([1]; 8 × MIC, time 35 min): 66248 and 66493 and 66011
- Fluorescence intensity ([1]; 8 × MIC, time 40 min): 66880
- Fluorescence intensity ([1]; MIC, time 0 min): 1004 and 1023 and 1031
- Fluorescence intensity ([1]; MIC, time 5 min): 2234 and 2276 and 2181
- Fluorescence intensity ([1]; MIC, time 10 min): 3718 and 3745 and 3579
- Fluorescence intensity ([1]; MIC, time 15 min): 5602 and 5647 and 5393
- Fluorescence intensity ([1]; MIC, time 20 min): 7978 and 7923 and 7560
- Fluorescence intensity ([1]; MIC, time 25 min): 10663 and 10527 and 10076
- Fluorescence intensity ([1]; MIC, time 30 min): 13390 and 13373 and 12886
- Fluorescence intensity ([1]; MIC, time 35 min): 16041 and 16009 and 15623
- Fluorescence intensity ([1]; MIC, time 40 min): 18514 and 18484 and 18179
- time to highest SYTOX Green fluorescence intensity ([1]; dose-dependent): ≤ 40 min
- Fluorescence intensity (MRSA USA 300 [2]; 2 × MIC, time 0 min): 1131 and 1217 and 1235
- Fluorescence intensity (MRSA USA 300 [2]; 2 × MIC, time 5 min): 20197 and 21230 and 20865
- Fluorescence intensity (MRSA USA 300 [2]; 2 × MIC, time 10 min): 25460 and 25912 and 25261
- Fluorescence intensity (MRSA USA 300 [2]; 2 × MIC, time 15 min): 28346 and 28832 and 27920
- Fluorescence intensity (MRSA USA 300 [2]; 2 × MIC, time 20 min): 30460 and 31033 and 29642
- Fluorescence intensity (MRSA USA 300 [2]; 2 × MIC, time 25 min): 31855 and 32475 and 30920
- Fluorescence intensity (MRSA USA 300 [2]; 2 × MIC, time 30 min): 32738 and 33363 and 31902
- Fluorescence intensity (MRSA USA 300 [2]; 2 × MIC, time 35 min): 33433 and 34141 and 32365
- Fluorescence intensity (MRSA USA 300 [2]; 4 × MIC, time 0 min): 1186 and 1404 and 1281
- Fluorescence intensity (MRSA USA 300 [2]; 4 × MIC, time 5 min): 40226 and 40219 and 41612
- Fluorescence intensity (MRSA USA 300 [2]; 4 × MIC, time 10 min): 48704 and 48472 and 50316
- Fluorescence intensity (MRSA USA 300 [2]; 4 × MIC, time 15 min): 53321 and 53163 and 55112
- Fluorescence intensity (MRSA USA 300 [2]; 4 × MIC, time 20 min): 56328 and 55931 and 58102
- Fluorescence intensity (MRSA USA 300 [2]; 4 × MIC, time 25 min): 58334 and 57993 and 60104
- Fluorescence intensity (MRSA USA 300 [2]; 4 × MIC, time 30 min): 59686 and 59179 and 61418
- Fluorescence intensity (MRSA USA 300 [2]; 4 × MIC, time 35 min): 60470 and 60307 and 62172
- Fluorescence intensity (MRSA USA 300 [2]; 8 × MIC, time 0 min): 1486 and 1674 and 1277
- Fluorescence intensity (MRSA USA 300 [2]; 8 × MIC, time 5 min): 46924 and 49356 and 49374
- Fluorescence intensity (MRSA USA 300 [2]; 8 × MIC, time 10 min): 54383 and 56666 and 56984
- Fluorescence intensity (MRSA USA 300 [2]; 8 × MIC, time 15 min): 57832 and 59952 and 60652
- Fluorescence intensity (MRSA USA 300 [2]; 8 × MIC, time 20 min): 59829 and 61957 and 62485
- Fluorescence intensity (MRSA USA 300 [2]; 8 × MIC, time 25 min): 61022 and 63005 and 63531
- Fluorescence intensity (MRSA USA 300 [2]; 8 × MIC, time 30 min): 61916 and 63588 and 64175
- Fluorescence intensity (MRSA USA 300 [2]; 8 × MIC, time 35 min): 62425 and 64473 and 64696
- Fluorescence intensity (MRSA USA 300 [2]; 8 × MIC, time 40 min): 62708
- Fluorescence intensity (MRSA USA 300 [2]; MIC, time 0 min): 1304 and 1201 and 1387
- Fluorescence intensity (MRSA USA 300 [2]; MIC, time 5 min): 12522 and 12645 and 12185
- Fluorescence intensity (MRSA USA 300 [2]; MIC, time 10 min): 14676 and 14962 and 14128
- Fluorescence intensity (MRSA USA 300 [2]; MIC, time 15 min): 16119 and 16290 and 15431
- Fluorescence intensity (MRSA USA 300 [2]; MIC, time 20 min): 16841 and 16805 and 16042
- Fluorescence intensity (MRSA USA 300 [2]; MIC, time 25 min): 17216 and 17215 and 16315
- Fluorescence intensity (MRSA USA 300 [2]; MIC, time 30 min): 17367 and 17359 and 16618
- Fluorescence intensity (MRSA USA 300 [2]; MIC, time 35 min): 17590 and 17525 and 16584
- Fluorescence intensity (MRSA USA 300 [2]; MIC, time 40 min): 17600 and 17633 and 16680
- time to maximum SYTOX Green fluorescence intensity (MRSA USA 300 [2]; different concentrations): ≤ 15 min
- concentration at which DiSC3(5) fluorescence intensity changed significantly (MRSA USA 300 [3]): 8 × MIC
- MIC Gram+ MRSA ATCC 43300 (MRSA ATCC 43300): 3.13 µM (≈ 4.53 µg/mL)
- MIC Gram+ MRSA 3393 (MRSA 3393): 3.13 µM (≈ 4.53 µg/mL)
- MIC Gram+ MRSA USA 300 (MRSA USA 300 [4]): 3.13 µM (≈ 4.53 µg/mL)
- MIC against MRSA USA 300 (MRSA USA 300 [5]; USA 300): 3.13 µM (≈ 4.53 µg/mL)
- MIC against MRSA USA 300 (MRSA USA 300 [5]; USA 300, pH 5.5): 3.13 µM (≈ 4.53 µg/mL)
- MIC against MRSA USA 300 (MRSA USA 300 [5]; USA 300, pH 6.4): 3.13 µM (≈ 4.53 µg/mL)
